Measured values from patent US20260262652A1, “INSECT DAMAGE INHIBITOR, METHOD FOR USING RESIN COMPOSITION, CULTIVATION METHOD, POTTING SOIL, AND METHOD FOR IMPROVING SOIL” (ARAKAWA CHEMICAL INDUSTRIES, LTD., priority 2023, published 2026).

Tested on: two-spotted spider mites
Assay: Test 2: spraying onto two-spotted spider mites on kidney bean seedlings, count of mites (pest reproduction inhibition effect)
Type: in vivo, Tetranychus urticae
Conditions: ten female adults inoculated on kidney bean seedlings, (A1) as 1% solution, average of pots
Protocol: Ten female adult two-spotted spider mites were inoculated onto ‘Naga-uzura’ kidney bean seedlings (14 days after germination) grown in plastic pots, and an ethanol solution of the component (A1) was further diluted 10-fold with deionized water, and the resulting 1% solution was sprayed onto the spider mites. Two additional pots with similarly grown kidney bean seedlings were prepared. On the 2nd, 4th, 9th, 13th, and 17th days after spraying, the total number of two-spotted spider mites on the adaxial surface, abaxial surface, and true leaves of the kidney beans in each pot was counted, and the average value was calculated. The test was conducted in the same manner for the component (A3)′.

In the case of `CCO` [(A3)′, ethanol], the “Number of two-spotted spider mites (Average) Day 2” value (Day 2 after spraying) was 9, the “Number of two-spotted spider mites (Average) Day 4” value (Day 4 after spraying) was 8 and the “Number of two-spotted spider mites (Average) Day 9” value (Day 9 after spraying) was 287. For the same compound, the “Number of two-spotted spider mites (Average) Day 13” value (Day 13 after spraying) was 564 and the “Number of two-spotted spider mites (Average) Day 17” value (Day 17 after spraying) was 924.
